The values below are quoted from earlier work in patent US5006510A, “Method for relieving chronic pain with a somatostatin analog composition” (priority 1989, dated 1991).

The conditions of series [1]: applied topically with N-decylmethylsulfoxide; mouse skin.
For series [2] the following is noted: applied topically with N-decylmethylsulfoxide; human skin.

Read-outs that look alike come from different tables or passages of the source.

Take `C[C@@H](O)[C@@H]1NC(=O)[C@H](CCCCN)NC(=O)[C@@H](Cc2c[nH]c3ccccc23)NC(=O)[C@H](Cc2ccccc2)NC(=O)[C@@H](NC(=O)[C@H](N)Cc2ccccc2)CSSC[C@@H](C(=O)N[C@H](CO)[C@@H](C)O)NC1=O` [octreotide, octreotide acetate]: the skin permeation result in series [1] was “permeates both human and mouse skin”; in series [2], “permeates both human and mouse skin”.
